Like-named read-outs stand apart in the source and are kept apart here.
How the values were obtained:
RS4;11 cells = assay: RS4;11 cell viability (CCK-8) assay; format: cell-based, human; conditions: 4 days, read-out: RS4;11 IC50 (Bcl-2 dependent)
Description: RS4;11 cells were obtained from American Type Culture Collection (ATCC). They were used within three months of thawing fresh vials. Cells were maintained in the recommended culture medium with 10% FBS at 37° C. and an atmosphere of 5% CO2.
The effect of representative Compounds of the Disclosure on cell viability was determined using Cell Counting Kit-8 (CCK-8) assay (Dojindo, Rockville, Md.) according to the manufacturer's instructions. 200 μL of a RS4;11 cell suspension (10000 cells/well) in culture medium were seeded into 96-well plates and cultured overnight. Each tested compound was serially diluted in culture medium, and 20 μL of the compound dilution was added to the corresponding well of the cell plate. After the addition of the tested compound, the cells were incubated at 37° C. in an atmosphere of 5% CO2 for 4 days. At the end of 4 days, 10 μL of CCK-8 solution was added to each well of the plate and incubated for 1-4 hours. The plates were read at 450 nm on the microplate spectrophotometer (Epoch2, BioTek). The readings were normalized to the vehicle cells, and the IC50 was calculated by nonlinear regression analysis using GraphPad Prism 5 software.

[1] = tested on: RS4;11 leukemia xenograft; assay: RS4;11 leukemia xenograft model; format: in vivo; conditions: oral gavage, nude mice
Description: The antitumor activity of Cpd. No. 6 (compound 6) was also studied in the RS4;11 leukemia xenograft model. Human RS4;11 tumor cells were injected into nude mice and treatment started on day 11 when the tumor size reached approximately 100 mm^3. Cpd. No. 6 was administered via oral gavage at indicated doses and schedules. Cpd.

Bcl-2 = Bcl-2 (Homo sapiens (Human), UniProt P10415); assay: Fluorescence polarization competitive binding assay, Bcl-2; conditions: FP competition with Flu-BIM probe; read-out: Inhibitory activity IC50 Bcl-2
Description: (§1) Fluorescence polarization values were measured using the Infinite M-1000 plate reader (Tecan U.S., Research Triangle Park, N.C.) in Microfluor 1 96-well, black, round-bottom plates (Thermo Scientific). […] Plates were mixed and incubated at room temperature for 1 hour with gentle shaking to assure equilibrium. […] Equilibrium dissociation constants (Kd) were then calculated by fitting the sigmoidal dose-dependent FP increases as a function of protein concentrations using Graphpad Prism 5.0 software (Graphpad Software, San Diego, Calif.).
(§2) Mixtures of 5 μl of the tested inhibitors in DMSO and 120 μl of pre-incubated protein/probe complexes in the assay buffer were added into assay plates and incubated at room temperature for 2 hours with gentle shaking. […] FP values were measured as described above. IC50 values were determined by nonlinear regression fitting of the competition curves.

Bcl-xL = Bcl-xL (Homo sapiens (Human), UniProt Q07817); assay: Fluorescence polarization competitive binding assay, Bcl-xL; conditions: FP competition with Flu-BAK probe; read-out: Inhibitory activity IC50 Bcl-xL
Description: as §1, §2

Mcl-1 = Mcl-1 (Homo sapiens (Human), UniProt Q07820); assay: Fluorescence polarization competitive binding assay, Mcl-1; conditions: FP competition with Flu-BID probe; read-out: Inhibitory activity IC50 Mcl-1
Mcl-1, sequence (Q07820 whole entry): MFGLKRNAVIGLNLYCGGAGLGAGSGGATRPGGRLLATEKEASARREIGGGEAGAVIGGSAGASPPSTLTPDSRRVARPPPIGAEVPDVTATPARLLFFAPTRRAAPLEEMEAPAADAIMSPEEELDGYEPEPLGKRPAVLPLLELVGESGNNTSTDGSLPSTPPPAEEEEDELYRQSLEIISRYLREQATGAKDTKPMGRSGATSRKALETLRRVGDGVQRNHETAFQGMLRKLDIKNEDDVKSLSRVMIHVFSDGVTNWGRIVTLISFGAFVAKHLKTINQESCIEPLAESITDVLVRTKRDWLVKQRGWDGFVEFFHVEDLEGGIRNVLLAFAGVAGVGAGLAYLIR
Description: as §1, §2

Bcl-2, sequence (P10415 whole entry): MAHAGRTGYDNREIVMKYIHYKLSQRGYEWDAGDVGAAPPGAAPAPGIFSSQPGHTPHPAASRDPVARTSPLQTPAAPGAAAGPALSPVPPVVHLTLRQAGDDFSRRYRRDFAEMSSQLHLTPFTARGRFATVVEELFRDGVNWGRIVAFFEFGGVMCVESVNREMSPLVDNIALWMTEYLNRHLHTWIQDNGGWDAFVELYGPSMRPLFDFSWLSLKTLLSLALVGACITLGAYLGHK
Bcl-xL, sequence (Q07817 whole entry): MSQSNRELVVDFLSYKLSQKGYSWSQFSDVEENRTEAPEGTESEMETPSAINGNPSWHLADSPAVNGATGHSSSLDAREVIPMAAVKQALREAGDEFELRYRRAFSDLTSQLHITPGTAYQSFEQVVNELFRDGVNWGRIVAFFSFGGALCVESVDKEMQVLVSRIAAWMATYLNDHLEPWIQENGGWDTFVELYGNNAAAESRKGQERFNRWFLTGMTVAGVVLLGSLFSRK

For “2-((1H-pyrrolo[2,3-b]pyridin-5-yl)oxy)-4-(1-((6- (4-chlorophenyl)-2-oxaspiro[3.5]non-6-en-7- yl)methyl)-1,2,3,6-tetrahydropyridin-4-yl)-N-((3- nitro-4-(((tetrahydro-2H-pyran-4- yl)methyl)amino)phenyl)sulfonyl)benzamide [compound 9]”, which IC50 (RS4;11 cells) is on record?
The IC50 was 28 nM.

For `O=C(NS(=O)(=O)c1ccc(NC[C@H]2COCCO2)c([N+](=O)[O-])c1)c1ccc(N2CCN(CC3=C(c4ccc(Cl)cc4)CC4(CCC4)CC3)CC2)cc1Oc1cnc2[nH]ccc2c1` [Cpd. No. 6, (S)-N-((4-(((1,4-dioxan-2-yl)methyl)amino)-3-nitrophenyl)sulfonyl)-2-((1H-pyrrolo[2,3-b]pyridin-5-yl)oxy)-4-(4-((6-(4-chlorophenyl)spiro[3.5]non-6-en-7-yl)methyl)piperazin-1-yl)benzamide], which “antitumor activity (tumor growth)” value ([1]; FIG. 3) is on record?
The value was “inhibits tumor growth”.

What about the mouse weight ([1]; FIG. 4) of the same molecule?
The mouse weight was “does not cause weight loss in mice”.

How did the IC50 (Bcl-2) turn out when `O=C(NS(=O)(=O)C1=CC2C(C=NN2CC2CCOCC2)C([N+](=O)[O-])=C1)c1ccc(N2CCN(CC3=C(c4ccc(Cl)cc4)CC4(CCC4)CC3)CC2)cc1Oc1cnc2[nH]ccc2c1` (stereo not drawn) [compound 62, 2-((1H-pyrrolo[2,3-b]pyridin-5-yl)oxy)-4-(4-((6-(4-chlorophenyl)spiro[3.5]non-6-en-7-yl)methyl)piperazin-1-yl)-N-((4-nitro-1-((tetrahydro-2H-pyran-4-yl)methyl)-3a,7a-dihydro-1H-indazol-6-yl)sulfonyl)benzamide] was run?
The IC50 was 1.6 nM.

What about the IC50 (Bcl-xL) of the same molecule?
The IC50 was 4 nM.

What about the IC50 (RS4;11 cells; Homo sapiens, RS4-11, 96 h) of the same molecule?
Its IC50 is 46 nM.

“(R)-N-((4-(((1,4-dioxan-2-yl)methyl)amino)-3- nitrophenyl)sulfonyl)-2-((1H-pyrrolo[2,3- b]pyridin-5-yl)oxy)-4-(1-((6-(4-chlorophenyl)-2- oxaspiro[3.5]non-6-en-7-yl)methyl)-1,2,3,6- tetrahydropyridin-4-yl)benzamide [Cpd. No. 5]” was tested. Which IC50 (RS4;11 cells) did it give?
The IC50 was 22 nM.

Which IC50 (RS4;11 cells) does the source give for “(R)-N-((4-(((1,4-dioxan-2-yl)methyl)amino)-3- nitrophenyl)sulfonyl)-2-((1H-pyrrolo[2,3- b]pyridin-5-yl)oxy)-4-(4-((6-(4-chlorophenyl)-2- oxaspiro[3.5]non-6-en-7-yl)methyl)piperazin-1- yl)benzamide [compound 8]” here?
The IC50 was 3.7 nM.

What about the IC50 (Mcl-1) of the same molecule?
Its IC50 is over 5000 nM.
